According to patent publication US6552045B2 (Sepracor Inc., priority 1999, dated 2003):

Experiments:
[1] = molecular target: T1, 5-HT3 receptor subtypes derived from N1E-115 cells (Mus musculus, UniProt P23979); assay: Receptor binding, 5-HT3 receptor (radioligand binding, Cerep); conditions: ratio of IC50 at 5-HT3 to IC50 at 5-HT4
T1 construct: 5-HT3 receptor subtypes derived from N1E-115 cells; host or cells: N1E-115 cells
T1 sequence (P23979 24-489): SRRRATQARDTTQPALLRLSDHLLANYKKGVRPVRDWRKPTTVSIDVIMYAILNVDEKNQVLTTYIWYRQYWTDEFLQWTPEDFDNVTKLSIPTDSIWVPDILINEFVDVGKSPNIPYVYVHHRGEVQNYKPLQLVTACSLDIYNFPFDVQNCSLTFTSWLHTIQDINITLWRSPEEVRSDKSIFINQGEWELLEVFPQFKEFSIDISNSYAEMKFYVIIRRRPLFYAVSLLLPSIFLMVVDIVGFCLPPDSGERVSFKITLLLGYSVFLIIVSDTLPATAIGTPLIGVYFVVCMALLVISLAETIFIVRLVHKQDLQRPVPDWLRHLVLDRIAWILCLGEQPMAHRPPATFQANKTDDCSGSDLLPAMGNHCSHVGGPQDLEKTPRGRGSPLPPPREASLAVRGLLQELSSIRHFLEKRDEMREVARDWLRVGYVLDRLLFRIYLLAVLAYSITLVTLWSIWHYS
Description: Receptor Binding 5-HT3 Receptor
Following incubation with the appropriate ligands, the preparations were rapidly filtered under vacuum through GF/B glass fiber filters and washed with ice-old buffer using a Brandel or Packard cell harvester.
Specific radioligand binding to the receptor was defined as the difference between total binding and nonspecific binding determined in the presence of an excess of unlabeled ligand. Results were expressed as a percent inhibition of specific binding obtained in the presence of the compounds.

[2] = co-administration with ketoconazole; inhibition of the metabolic elimination of cisapride; cited from earlier work

| SMILES | 5-HT3/5-HT4 Ratio [1] | increase of the steady-state plasma levels [2] |
| --- | --- | --- |
| COc1cc(N)c(Cl)cc1C(=O)NC1CCNCC1OC (racemic) [(±) Norcisapride, 4-amino-5-chloro-N-(3-methoxy-4-piperidinyl)-2-methoxybenzamide] | 0.012 | – |
| COc1cc(N)c(Cl)cc1C(=O)NC1CCNCC1OC (single isomer, unassigned; (+)) [(+) Norcisapride] | 0.014 | – |
| COc1cc(N)c(Cl)cc1C(=O)NC1CCNCC1OC (single isomer, unassigned; (-)) [(−) Norcisapride] | 0.023 | – |
| COc1cc(N)c(Cl)cc1C(=O)N[C@H]1CCN(CCCOc2ccc(F)cc2)C[C@H]1OC (racemic) [(±) Cisapride, cis-4-amino-5-chloro-N-[1-[3-(4-fluorophenoxy)propyl]-3-methoxy-4-piperidinyl]-2-methoxybenzamide] | – | 8 fold |
